From patent US20220011296A1, “DETERMINING TREATMENT RESPONSE IN SINGLE CELLS” (Dana-Farber Cancer Institute, Inc., priority 2018, published 2022)
“Also recorded” adds a separate entry of the source.

Columns and labels:
Type in all cases: cell-based, human
Breast Met cells = experiment: Sample viability (Live/Dead), breast metastasis; conditions: 3 days, vehicle 35%
Description: (§1) Primary Sample Handling. The six primary samples underwent the same protocol with regards to disassociation, recovery, and drugging; however, the exact timeline of each tissue varied slightly based on the amount of tissue and drug used (Table 1, below). After at least [culture time] in culture (with the exception of CNS lymphoma which was cultured for 24 hours), persistent red blood cells were removed with RBC lysis buffer (00-433-57, Thermo Fisher Scientific). The remaining cells were then dissociated with Accutase (A6964, Sigma-Aldrich) and further purified via demyelination (130-096-733, Miltenyi Biotec) with MS separation columns (130-042-201, Miltenyi Biotec), or debris removal (130-109-398, Miltenyi Biotec). The purified cells were plated in 6 or 24 well plates and allowed to recover in the well plate for [recovery time] before addition of the drug. After [drug duration] days, the samples were prepared for sSMR for drug response measurements by dissociation into a single-cell suspension using Accutase and gentle pipetting. Cells were resuspended at a concentration of 100,000 cells/mL in Neurocult NS-A (as prepared above) with the same concentration of drug or DMSO as their respective culture. Measurements for sample viability were determined (Table 2, below).

[1] = tested on: Recurrent Glioblastoma cells; experiment: Sample viability (Live/Dead), recurrent glioblastoma; conditions: 1 μM Abema, 3 days; vehicle 67%
Description: as §1

CNS Lymphoma cells = experiment: Sample viability (Live/Dead), CNS lymphoma; conditions: 10 nM Ibrutinib, 2 days; vehicle 74%
Description: as §1

[2] = tested on: glioblastoma multiforme (GBM) patient-derived cell lines (PDCLs); experiment: Single cell mass / MAR assay in patient-derived cell lines; conditions: TMZ compared with DMSO, heterogeneous cohort of PDCLs, FIG. 7A
Description: A single cell protocol for monitoring the mass accumulation rate (MAR) in response to chemotherapy (FIGS. 6A-6F). After tumor resection, the tissue is dissociated into single cells (FIG. 6A). The single cells from the dissociated tumor is measured within a week of resection using the mass/MAR of the single cells in response to chemotherapeutic agents (FIG. 6C). In addition to acute sensitivity testing, dissociated tumor cells from patient samples can also be grown long-term into robust cell lines (e.g., patient-derived cell lines, PDCLs), where high throughput experiments can be performed and analyzed relative to a more complete genomic background of the tissue (FIG. 6D). Because this assay is high throughput, the MAR can be measured with more conditions relative to acute patient samples. These PDCLs can be implanted in vivo to allow MAR measurements to be taken ex vivo from treated animals (e.g., mice). Metabolic readouts (e.g., CellTiter-Glo, CTG) and spheroid area analysis (e.g., IncuCyte) were conducted in parallel to the novel single cell MAR assays described herein (FIG. 6E).
Single cell MAR experiments were conducted in both PDCLs and acute patient models (FIGS. 7A-7D). […] The single cell MAR assay detected changes within 24 hours after treatment with a chemotherapeutic (TMZ) compared with DMSO (FIG. 7A).

Glioblastoma cells = experiment: Sample viability (Live/Dead), glioblastoma; conditions: 250 μM TMZ, 8 days; vehicle 73%
Description: as §1

Normal brain cells = experiment: Sample viability (Live/Dead), normal brain; conditions: 250 μM TMZ, 3 days; vehicle 35%
Description: as §1

[3] = tested on: metastatic non-small-cell lung cancer cells (BT1443); experiment: sSMR buoyant mass and MAR measurement, lung metastasis (BT1443); conditions: carboplatin 100 μM, 72 h
Description: Patient-derived cells from six different types of brain tissues were assessed for drug sensitivity in the sSMR: non-tumor brain tissue from epilepsy surgery, glioblastoma, recurrent glioblastoma, breast metastasis, lung metastasis, and primary CNS lymphoma. Resected samples obtained with patient consent to research (Brigham and Women's Hospital, DF/HCC IRB-approved consent protocol 10-417) were enzymatically and physically dissociated using the Brain Tumor Dissociation Kit P (130-095-942, Miltenyi Biotec) and gentleMACS Dissociator (130-093-235, Miltenyi Biotec). […]
Primary Sample Handling. […] Measurements for sample viability were determined (Table 2, below).
Measurements were obtained from […] types of primary patient sample types, including: non-tumor brain tissue resected for a non-tumor condition (FIGS. 5A-5B, Table 6) (n=1); primary glioblastoma (FIGS. 5C-5D, Table 7) and recurrent glioblastoma (FIGS. 5E-5F, Table 8) (n=2); metastatic breast adenocarcinoma (FIGS. 5G-5H, Table 9) (n=1); metastatic non-small-cell lung cancer (FIGS. 5I-5J, Table 10) (n=1); and primary central nervous system (CNS) lymphoma (FIGS. 5K-5L, Table 11) (n=1). […] Overall, mass and MAR were measured for 1092 cells with an average of 84 cells measured per condition over 13 conditions tested (FIGS. 1B-1C). […]

Lung Met cells = experiment: Sample viability (Live/Dead), lung metastasis; conditions: 100 μM Carbo, 3 days; vehicle 80%
Description: as §1

CCN1CCN(Cc2ccc(Nc3ncc(F)c(-c4cc(F)c5nc(C)n(C(C)C)c5c4)n3)nc2)CC1 [Abemaciclib]
Drug 2 Viability (Live/Dead) (Breast Met cells; 100 nM Abema): 35%
Drug 1 Viability (Live/Dead) [1]: 59%

C=CC(=O)N1CCC[C@@H](n2nc(-c3ccc(Oc4ccccc4)cc3)c3c(N)ncnc32)C1 [Ibrutinib]
Drug 1 Viability (Live/Dead) (CNS Lymphoma cells): 65%

Cn1nnc2c(C(N)=O)ncn2c1=O [TMZ, Temozolomide]
time after treatment at which single cell MAR changes were detected [2]: ≤ 24 h
Drug 1 Viability (Live/Dead) (Glioblastoma cells): 69%
Drug 1 Viability (Live/Dead) (Normal brain cells): 30%

N.N.O=C([O-])C1(C(=O)[O-])CCC1.[Pt+2] [Carboplatin]
Mass-normalized MAR vs vehicle (in words) [3]: significantly reduced; also recorded: Statistically significant reductions
Drug 1 Viability (Live/Dead) (Lung Met cells): 74%

CO[C@H]1C[C@@H]2CC[C@@H](C)[C@@](O)(O2)C(=O)C(=O)N2CCCC[C@H]2C(=O)O[C@H]([C@H](C)C[C@@H]2CC[C@@H](OCCO)[C@H](OC)C2)CC(=O)[C@H](C)/C=C(\C)[C@@H](O)[C@@H](OC)C(=O)[C@H](C)C[C@H](C)/C=C/C=C/C=C/1C [RAD001, everolimus]
Drug 1 Viability (Live/Dead) (Breast Met cells; 1 nM RAD): 32%
